Measurements as given in publication PMC7005262, “Complete structure of the chemosensory array core signalling unit in an E. coli minicell strain” (Nature Communications, 2020).
pEC50: −log10 of the molar value.

Target: T1, Tsr (Escherichia coli, UniProt P02942)
T1 construct: mixed adaptational modification states, CheR and CheB present; read-out by plasmid-borne CheY-YFP/CheZ-CFP
Assay: in vivo FRET kinase assay (CheY-YFP/CheZ-CFP), inhibition of receptor-coupled CheA activity, multi-site Hill fit
Assay type: cell-based
Details: intact WM4196 minicells, motility buffer pH 7.0, adaptation enzymes CheR and CheB present; attractant at the periplasmic domain; read-out: K1/2

T1 sequence (P02942 whole entry): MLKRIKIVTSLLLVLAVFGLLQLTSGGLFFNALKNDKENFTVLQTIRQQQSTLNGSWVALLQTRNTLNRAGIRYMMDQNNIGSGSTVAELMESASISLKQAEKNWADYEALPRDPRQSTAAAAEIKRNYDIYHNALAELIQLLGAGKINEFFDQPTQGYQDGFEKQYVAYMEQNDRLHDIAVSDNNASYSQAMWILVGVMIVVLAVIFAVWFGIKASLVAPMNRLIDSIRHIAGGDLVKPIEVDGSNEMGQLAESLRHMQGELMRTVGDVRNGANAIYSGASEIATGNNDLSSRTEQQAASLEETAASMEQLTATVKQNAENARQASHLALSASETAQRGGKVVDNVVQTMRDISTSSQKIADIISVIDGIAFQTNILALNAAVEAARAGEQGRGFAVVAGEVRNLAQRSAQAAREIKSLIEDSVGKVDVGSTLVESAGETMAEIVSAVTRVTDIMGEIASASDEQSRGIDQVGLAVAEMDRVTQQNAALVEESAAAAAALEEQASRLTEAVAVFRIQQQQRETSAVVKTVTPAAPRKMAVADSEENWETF

N[C@@H](CO)C(=O)O [serine]
pEC50: 6.40
